Reference: patent US10138227B2, “Heteroaryl substituted pyridines and methods of use” (AbbVie S.à.r.l., priority 2016, dated 2018)

Molecular target: T1, CFTR ΔF508 mutant (Homo sapiens, UniProt P13569, DEL508-508)
T1 construct: expressed in transfected cells; host or cells: CFBE41o- cells transduced with adenoviral vectors
Experiment: YFP-halide influx assay for the CFTR-ΔF508 mutation
Type: cell-based
Conditions: CFBE41o- cells expressing CFTR ΔF508 and YFP reporter, forskolin 10.67 μM; for EC50: (1-F/F0) vs concentration
Excerpt: The YFP halide influx assay measured the functionality of the cystic fibrosis Transmembrane Conductance regulator (CFTR) channels in the cystic fibrosis bronchial epithelium cell line CFBE41o-. The assay was used to evaluate the capacity of compounds to increase the open probability of existing CFTR channels in the membrane. It makes use of the observation that the yellow fluorescent protein (YFP) variant YFP H148Q, I152L, F47L has its fluorescence substantially quenched by halide ions like Cl^− and I^− (Galietta, L. J. V., Haggie, P. M., Verkman, A. S., 2001. Green fluorescent protein-based halide indicators with improved chloride and iodide affinities. FEBS Lett. 499, 220-224. doi:10.1016/S0014-5793(01)02561-3; Nagai, T., Ibata, K., Park, E. S., Kubota, M., Mikoshiba, K., Miyawaki, A., 2002. A variant of yellow fluorescent protein with fast and efficient maturation for cell-biological applications. Nat. Biotechnol. 20, 87-90. doi:10.1038/nbt0102-87).
For this purpose, CFBE410-cells were seeded in 384 well plates (3000 CFBE cells/well). One day after seeding, the CFBE cells were transduced with adenoviral vectors that direct the expression of the CFTR ΔF508 mutant and of the YFP reporter. Cells were incubated at 27° C., 5% CO2 for 24 hours so as to allow for the proper folding and migration to the membrane of the CFTR channel or treated with a CFTR modulator during 24 hours at 37° C.
The I-induced quenching of fluorescence was recorded on an immediately after injection of iodide for 2 minutes on an FDSS/μCell (Hamamatsu). The capacity of a compound to increase the channel opening was directly correlated with the decrease in fluorescence, and was expressed as (1-(fluorescence after 36 seconds (F)/fluorescence before injection (F0))) and an EC50 was derived from a (1-F/F0) vs compound concentration plot.

T1 sequence (P13569 with tags, fused parts or gaps DEL508-508): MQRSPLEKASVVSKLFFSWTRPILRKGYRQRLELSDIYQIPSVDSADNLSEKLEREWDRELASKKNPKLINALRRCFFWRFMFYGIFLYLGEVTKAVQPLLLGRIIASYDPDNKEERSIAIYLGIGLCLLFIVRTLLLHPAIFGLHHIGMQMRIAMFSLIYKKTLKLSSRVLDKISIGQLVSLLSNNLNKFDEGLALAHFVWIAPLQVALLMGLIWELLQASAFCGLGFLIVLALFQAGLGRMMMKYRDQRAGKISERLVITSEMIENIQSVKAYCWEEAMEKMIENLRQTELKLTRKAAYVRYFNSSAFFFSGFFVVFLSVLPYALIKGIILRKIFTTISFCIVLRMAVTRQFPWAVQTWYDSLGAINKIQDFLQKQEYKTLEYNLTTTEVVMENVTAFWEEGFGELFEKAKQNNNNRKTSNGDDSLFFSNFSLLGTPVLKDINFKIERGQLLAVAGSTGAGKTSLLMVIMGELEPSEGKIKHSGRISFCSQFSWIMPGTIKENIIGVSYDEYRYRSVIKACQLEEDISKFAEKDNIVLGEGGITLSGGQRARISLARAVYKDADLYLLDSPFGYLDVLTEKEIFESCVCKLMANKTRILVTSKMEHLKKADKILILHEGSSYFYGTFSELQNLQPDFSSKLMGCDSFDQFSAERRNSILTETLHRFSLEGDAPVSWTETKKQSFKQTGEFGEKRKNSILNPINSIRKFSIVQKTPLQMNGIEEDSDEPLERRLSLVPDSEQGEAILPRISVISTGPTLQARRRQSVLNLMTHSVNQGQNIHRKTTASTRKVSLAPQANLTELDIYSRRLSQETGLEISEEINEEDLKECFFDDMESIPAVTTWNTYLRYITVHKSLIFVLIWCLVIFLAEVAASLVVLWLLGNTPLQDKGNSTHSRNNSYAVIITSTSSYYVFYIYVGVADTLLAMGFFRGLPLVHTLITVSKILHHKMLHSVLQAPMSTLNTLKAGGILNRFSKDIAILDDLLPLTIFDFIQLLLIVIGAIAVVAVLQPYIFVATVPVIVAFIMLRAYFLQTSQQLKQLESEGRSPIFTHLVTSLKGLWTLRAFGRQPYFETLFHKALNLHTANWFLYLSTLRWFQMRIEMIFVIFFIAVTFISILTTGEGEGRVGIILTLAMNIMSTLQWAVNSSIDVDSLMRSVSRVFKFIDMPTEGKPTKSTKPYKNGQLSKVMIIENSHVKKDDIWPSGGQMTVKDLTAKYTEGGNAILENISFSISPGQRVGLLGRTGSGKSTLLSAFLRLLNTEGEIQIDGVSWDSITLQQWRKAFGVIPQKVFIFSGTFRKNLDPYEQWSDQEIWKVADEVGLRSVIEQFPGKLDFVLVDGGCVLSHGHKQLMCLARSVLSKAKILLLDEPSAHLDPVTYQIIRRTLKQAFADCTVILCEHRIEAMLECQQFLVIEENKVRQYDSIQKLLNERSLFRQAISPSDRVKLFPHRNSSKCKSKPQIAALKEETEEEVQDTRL

Row | % Activation | EC50 | SMILES
1 | 86.03% | 78.1 nM | Nc1cc(S(=O)(=O)c2ccc(OC(F)(F)F)cc2)cnc1-c1nnco1 [Compound 6, 2-(1,3,4-oxadiazol-2-yl)-5-[4-(trifluoromethoxy)benzene-1-sulfonyl]pyridin-3-amine]
2 | 109.69% | 5.8 nM | Nc1cc(S(=O)(=O)c2ccc(C(F)(F)F)cc2)cnc1-c1nnc(CO)o1 [Compound 7, (5-{3-amino-5-[4-(trifluoromethyl)benzene-1-sulfonyl]pyridin-2-yl}-1,3,4-oxadiazol-2-yl)methanol]
3 | 93.73% | 300 nM | NC(=O)c1nnc(-c2ncc(S(=O)(=O)c3ccc(OC(F)(F)F)cc3)cc2N)o1 [Compound 8, 5-{3-amino-5-[4-(trifluoromethoxy)benzene-1-sulfonyl]pyridin-2-yl}-1,3,4-oxadiazole-2-carboxamide]
4 | 104.65% | 96.7 nM | Nc1cc(S(=O)(=O)c2ccc(F)cc2)cnc1-c1nnc(CO)o1 [Compound 9, {5-[3-amino-5-(4-fluorobenzene-1-sulfonyl)pyridin-2-yl]-1,3,4-oxadiazol-2-yl}methanol]
5 | 106.5% | 14.9 nM | Nc1cc(S(=O)(=O)c2ccc(OC(F)(F)F)cc2)cnc1-c1nnc(C2CCCCC2)o1 [Compound 10, 2-(5-cyclohexyl-1,3,4-oxadiazol-2-yl)-5-[4-(trifluoromethoxy)benzene-1-sulfonyl]pyridin-3-amine]
6 | 109.82% | 35.1 nM | CO[C@@H](c1ccccc1)c1nnc(-c2ncc(S(=O)(=O)c3ccc(OC(F)(F)F)cc3)cc2N)o1 [Compound 11, 2-{5-[(S)-methoxy(phenyl)methyl]-1,3,4-oxadiazol-2-yl}-5-[4-(trifluoromethoxy)benzene-1-sulfonyl]pyridin-3-amine]
7 | 100.38% | 8.52 nM | Nc1cc(S(=O)(=O)c2ccc(OC(F)(F)F)cc2)cnc1-c1nnc(COCC2CC2)o1 [Compound 12, 2-{5-[(cyclopropylmethoxy)methyl]-1,3,4-oxadiazol-2-yl}-5-[4-(trifluoromethoxy)benzene-1-sulfonyl]pyridin-3-amine]
8 | 100.57% | 327 nM | Nc1cc(S(=O)(=O)c2ccc(OC(F)(F)F)cc2)cnc1-c1nnc(COc2ccccc2)o1 [Compound 13, 2-[5-(phenoxymethyl)-1,3,4-oxadiazol-2-yl]-5-[4-(trifluoromethoxy)benzene-1-sulfonyl]pyridin-3-amine]
9 | 116.8% | 67.9 nM | Nc1cc(S(=O)(=O)c2ccc(OC(F)(F)F)cc2)cnc1-c1nnc(COC2CCCC2)o1 [Compound 14, 2-{5-[(cyclopentyloxy)methyl]-1,3,4-oxadiazol-2-yl}-5-[4-(trifluoromethoxy)benzene-1-sulfonyl]pyridin-3-amine]
10 | 113.65% | 6.94 nM | Nc1cc(S(=O)(=O)c2ccc(OC(F)(F)F)cc2)cnc1-c1nnc(COC(F)(F)F)o1 [Compound 15, 5-[4-(trifluoromethoxy)benzene-1-sulfonyl]-2-{5-[(trifluoromethoxy)methyl]-1,3,4-oxadiazol-2-yl}pyridin-3-amine]
11 | 110.75% | 78.1 nM | Nc1cc(S(=O)(=O)c2ccc(OC(F)(F)F)cc2)cnc1-c1nnc(COC2CCOC2)o1 (centres unmarked) [Compound 16, 2-(5-{[(oxolan-3-yl)oxy]methyl}-1,3,4-oxadiazol-2-yl)-5-[4-(trifluoromethoxy)benzene-1-sulfonyl]pyridin-3-amine]
12 | 117.3% | 11.4 nM | COCCOCc1nnc(-c2ncc(S(=O)(=O)c3ccc(OC(F)(F)F)cc3)cc2N)s1 [Compound 17, 2-{5-[(2-methoxyethoxy)methyl]-1,3,4-thiadiazol-2-yl}-5-[4-(trifluoromethoxy)benzene-1-sulfonyl]pyridin-3-amine]
13 | 106.2% | 9.09 nM | Nc1cc(S(=O)(=O)c2ccc(OC(F)(F)F)cc2)cnc1-c1nnc(CNC(=S)C2CC2)s1 [Compound 18, N-[(5-{3-amino-5-[4-(trifluoromethoxy)benzene-1-sulfonyl]pyridin-2-yl}-1,3,4-thiadiazol-2-yl)methyl]cyclopropanecarbothioamide]
14 | 97.54% | 350 nM | CO[C@@H](c1ccccc1)c1nnc(-c2ncc(S(=O)(=O)c3ccc(OC(F)(F)F)cc3)cc2N)s1 [Compound 19, 2-{5-[(S)-methoxy(phenyl)methyl]-1,3,4-thiadiazol-2-yl}-5-[4-(trifluoromethoxy)benzene-1-sulfonyl]pyridin-3-amine]
15 | 97.45% | 8.12 nM | C[C@@](O)(c1nnc(-c2ncc(S(=O)(=O)c3ccc(OC(F)(F)F)cc3)cc2N)s1)C(F)(F)F [Compound 20, (2S)-2-(5-{3-amino-5-[4-(trifluoromethoxy)benzene-1-sulfonyl]pyridin-2-yl}-1,3,4-thiadiazol-2-yl)-1,1,1-trifluoropropan-2-ol]
16 | 109.42% | 8.54 nM | CO[C@H](C)c1nnc(-c2ncc(S(=O)(=O)c3ccc(OC(F)(F)F)cc3)cc2N)s1 [Compound 21, 2-{5-[(1R)-1-methoxyethyl]-1,3,4-thiadiazol-2-yl}-5-[4-(trifluoromethoxy)benzene-1-sulfonyl]pyridin-3-amine]
17 | 112.9% | 15.2 nM | COC(C)c1nnc(-c2ncc(S(=O)(=O)c3ccc(OC(F)(F)F)cc3)cc2N)s1 (centres unmarked) [Compound 22, 2-[5-(1-methoxyethyl)-1,3,4-thiadiazol-2-yl]-5-[4-(trifluoromethoxy)benzene-1-sulfonyl]pyridin-3-amine]
18 | 100.92% | 37.1 nM | CO[C@@H](C)c1nnc(-c2ncc(S(=O)(=O)c3ccc(OC(F)(F)F)cc3)cc2N)s1 [Compound 23, 2-{5-[(1S)-1-methoxyethyl]-1,3,4-thiadiazol-2-yl}-5-[4-(trifluoromethoxy)benzene-1-sulfonyl]pyridin-3-amine]
19 | 100.82% | 13.7 nM | Nc1cc(S(=O)(=O)c2ccc(OC(F)(F)F)cc2)cnc1-c1nnc(COCC2CC2)s1 [Compound 24, 2-{5-[(cyclopropylmethoxy)methyl]-1,3,4-thiadiazol-2-yl}-5-[4-(trifluoromethoxy)benzene-1-sulfonyl]pyridin-3-amine]
20 | 104.42% | 4.4 nM | CCOCc1nnc(-c2ncc(S(=O)(=O)c3ccc(OC(F)(F)F)cc3)cc2N)s1 [Compound 25, 2-[5-(ethoxymethyl)-1,3,4-thiadiazol-2-yl]-5-[4-(trifluoromethoxy)benzene-1-sulfonyl]pyridin-3-amine]
21 | 101.69% | 3.33 nM | COCc1nnc(-c2ncc(S(=O)(=O)c3ccc(OC(F)(F)F)cc3)cc2N)s1 [Compound 26, 2-[5-(methoxymethyl)-1,3,4-thiadiazol-2-yl]-5-[4-(trifluoromethoxy)benzene-1-sulfonyl]pyridin-3-amine]
22 | 96.45% | 151 nM | Nc1cc(S(=O)(=O)c2ccc(OC(F)(F)F)cc2)cnc1-c1nnc(COc2cccnc2)s1 [Compound 27, 2-(5-{[(pyridin-3-yl)oxy]methyl}-1,3,4-thiadiazol-2-yl)-5-[4-(trifluoromethoxy)benzene-1-sulfonyl]pyridin-3-amine]
